The test system of test [1] is Ova-peptide pulsed EL4 cells. Kind of test: Cytotoxicity of spleen cells from vaccinated mice, 18-hour chromium release assay. The format is in vivo, C57BL/6 mice. To be noted: mice immunized with the single component alone. The method, then: The purified hsp70 was combined with the synthesized peptides and used for immunization. To form the hsp70/peptide mixtures, approximately 15 μg (21.5 μM) hsp70 was combined with 5 μg of ova-peptide (0.5 mM, SEQ. ID. NO: 7) or 10 μg (0.5 mM) hybrid peptide (SEQ. ID NOS: 8 and 9) were mixed on ice to a final volume of 10 μl in Buffer B (final concentration: 20 mM Hepes pH 7.0, 150 mM KCl, 10 mM (NH4)2SO4, 2 mM MgCl2 and 2 mM MgADP, pH 7.0). The mixtures were incubated for 30 minutes at 37° C. and then used for in vivo immunizations.
C57BL/6 mice were immunized intradermally once a week for a total of two weeks with 10 μL of one of the mixtures described above or with a mixture of TITERMAX® (Vaxcell, Norcross, Ga.) and Ova-peptide (5 μg). One week after the second immunization, spleen cells were removed and mononuclear cells (6-8×10^7) were cultured with 3×10^6 γ-irradiated (3000 rad) stimulator cells. The stimulator cells were obtained from naive mice that had been sensitized in vitro with Ova-peptide (10 mg/ml) for 30 minutes at room temperature, washed and irradiated at 3000 rads.
Cytotoxicity of spleen cells from vaccinated mice were assayed on Ova-peptide pulsed EL4 cells in an 18-hour chromium release assay. CTL were generated by culturing in vivo immunized spleen cells for 5 days at a concentration of 10^6 cells/mL in RPMI medium, 10% FCS, penicillin, streptomycin and 2 mM L-glutamine, together with 3×10^6 γ-irradiated (3,000 rad) stimulator cells/mL. Target cells were prepared by culturing cells for 1 hour in the presence of 250 μCi of ^51Cr sodium chromate (DuPont, Boston, Mass.) in Tris-phosphate buffer, pH 7.4 at 37° C. for 60 minutes. After washing, 10^4 ^51Cr-labeled target cells were mixed with effector lymphocytes to yield several different effector/target (E/T) ratios and were incubated for 18 hours. Supernatants were harvested and the radio-activity was measured in a gamma counter. Percent specific lysis was calculated as: 100×[(cpm release by CTL-cpm spontaneous release)/(cpm maximal release—cpm spontaneous release)]. Maximal response was determined by addition of 1% Triton X-100. Spontaneous release of all target in the absence of effector cells was less than 25% of the maximal release.

In test [2] the target is T1, BiP (Mus musculus, UniProt P20029).
T1 construct: mature wild-type or KDEL-deleted BiP can be harvested from the periplasm; extra Met (initiator ATG of the 5' primer, ahead of the mature N-terminus) (N); made in house; host or cells: E. coli BL21, pET22, periplasmic extract
The test is described as follows: Binding of 14C-labeled OVA-BiP to heat shock protein, co-elution on Sephacryl S-300 column. The conditions noted are these: 100 μM 14C-labeled peptide, 50 μg BiP, 37° C., 30 minutes. The method, then:
^14C-labeled OVA-BiP was prepared by alkylation of OVA-BiP with ^14C-formaldehyde. 0.9 mg of OVA-BiP in 300 uL 10% DMSO/water was added to 175 μl of ^14C-formaldehyde (62 μCi) and immediately 50 uL of freshly made up 200 mM NaCNBH3 was added. The reaction was mixed and left at 25° C. for 3 hours. The labeled peptide was repurified by reverse phase HPLC on a C-4 column in a 15 minute 0-100% acetonitrile (0.1% TFA) gradient.
The ability of the OVA-BiP peptide to bind to heat shock proteins was measured by incubating 100 μM (5μg) ^14C-labeled OVA-BiP with 50 μg of BiP (prepared as in example 11), hsp70 (as prepared in Example 2) or grp96 (prepared as in Example 10) in a final volume of 20 μl of buffer (50 mM Mops, pH 7.2., […] NaCl, 5 mM MgAcetate) at 37° C. for 30 minutes. The samples were then spun down (5 minutes in a microfuge) and loaded onto a 17 cm long Sephacryl S-300 column equilibrated in binding buffer (50 mM Mops, pH 7.2., 200 mM NaCl, 5 mM MgAcetate) and fractions were collected dropwise. 50 μl of each ˜225 μl fraction was counted in scintillation liquid. 10 μl of each fraction was also run on a 12% SDS-PAGE reducing gel. […] The result for gp96 is unclear because the peak at fraction 11 (which may represent an aggregation phenomenon) and the gp96 peak (fraction 14) elute close together on the column used.

A further test concerns the target T2, hsp70 (Mus musculus, UniProt P17879).
T2 construct: made in house; host or cells: E. coli DH5α, plasmid pMS236
Described as above. To be noted: 100 μM 14C-labeled peptide, 50 μg hsp70, 37° C., 30 minutes. The method, then:
Purified mouse cytosolic hsp70 was prepared from E. coli DH5α cells transformed with pMS236 encoding mouse cytosolic hsp70. The cells were grown to an optical density (600 nm) of 0.6 at 37° C., and expression was induced by the addition of IPTG to a final concentration of 1 mM. Cells were harvested by centrifugation 2 to 5 hours post induction and the pellets were resuspended to 20 mL with Buffer A (20 mM Hepes pH 7.0, 25 mM KCl, 1 mM DTT, 10 mM (NH4)2SO4, 1 mM PMSF). The cells were lysed by passing three times through a French press. The lysate was cleared by a low speed spin, followed by centrifugation at 100,000×G for 30 minutes. The cleared lysate was applied to a Pharmacia XK26 column packed with 100 mL DEAE Sephacel and equilibrated with Buffer A at a flow rate of 0.6 cm/min. The column was washed to stable baseline with Buffer A and eluted with Buffer A adjusted to 175 mM KCl. […]
The ability of the OVA-BiP peptide to bind to heat shock proteins was measured by incubating 100 μM (5μg) ^14C-labeled OVA-BiP with 50 μg of BiP (prepared as in example 11), hsp70 (as prepared in Example 2) or grp96 (prepared as in Example 10) in a final volume of 20 μl of buffer (50 mM Mops, pH 7.2., […] NaCl, 5 mM MgAcetate) at 37° C. for 30 minutes. […] 50 μl of each ˜225 μl fraction was counted in scintillation liquid. […]

Test [3] deals with T1, BiP. Kind of test: ATP-mediated peptide release, elution profile of 125I-OVA-BiP and BiP. The format is binding. To be noted: presence and absence of 2 mM ATP. As for the experimental part: To prepare ^125I-OVA-BiP, 250 μCi of monoiodinated Bolton-Hunter reagent was transferred into a stoppered vial and the solvent in which it was dissolved was evaporated with a gentle stream of argon gas. To the dried reagent 222 μL of 4.5 mg/mL OVA-BiP in 100 mM NaBO3, pH 8, […], 10% DMSO was added. The reaction was mixed and incubated at 25° C. for 45 minutes and continued at 4° C. for a further hour. The labeled peptide was repurified by reverse phase HPLC on a C-4 column in a 20 minute, 0-100% acetonitrile (0.1% TFA) gradient. The iodinated OVA-BiP was combined with BiP in substantially the same manner as the heat shock proteins in Example 7, except that since the iodinated peptide was at a very low concentration, 1 μl (approx 32 ng) of labeled peptide was mixed with 5 μg of unlabeled peptide and this was incubated with 50 μg of BiP in 20 μL of binding buffer. To observe ATP-mediated peptide release, ATP was added to a final concentration of 2 mM after the 30 minute incubation and incubated for a further 5 minutes prior to spinning. These samples were run on the same column as above, but equilibrated in binding buffer supplemented with 2 mM ATP. […] This is consistent with the observation that ATP mediates release of bound proteins or polypeptides from heat shock proteins.

No end group written: not given here.

T1 sequence (P20029 20-655): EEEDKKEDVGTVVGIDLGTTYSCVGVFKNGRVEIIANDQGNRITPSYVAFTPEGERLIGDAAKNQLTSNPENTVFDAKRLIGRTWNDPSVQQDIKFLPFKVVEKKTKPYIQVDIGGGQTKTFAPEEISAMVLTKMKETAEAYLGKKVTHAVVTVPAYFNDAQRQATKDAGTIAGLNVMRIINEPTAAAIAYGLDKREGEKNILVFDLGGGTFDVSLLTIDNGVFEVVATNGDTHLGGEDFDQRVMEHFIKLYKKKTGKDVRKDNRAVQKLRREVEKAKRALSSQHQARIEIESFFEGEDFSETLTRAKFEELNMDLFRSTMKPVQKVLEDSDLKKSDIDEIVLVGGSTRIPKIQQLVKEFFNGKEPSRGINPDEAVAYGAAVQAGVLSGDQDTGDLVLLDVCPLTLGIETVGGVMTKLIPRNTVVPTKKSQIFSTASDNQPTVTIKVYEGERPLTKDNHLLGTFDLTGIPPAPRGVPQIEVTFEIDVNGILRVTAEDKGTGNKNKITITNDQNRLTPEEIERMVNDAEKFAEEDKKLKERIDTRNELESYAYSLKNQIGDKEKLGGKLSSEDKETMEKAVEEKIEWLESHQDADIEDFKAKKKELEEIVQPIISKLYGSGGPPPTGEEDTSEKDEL
T2 sequence (P17879 whole entry): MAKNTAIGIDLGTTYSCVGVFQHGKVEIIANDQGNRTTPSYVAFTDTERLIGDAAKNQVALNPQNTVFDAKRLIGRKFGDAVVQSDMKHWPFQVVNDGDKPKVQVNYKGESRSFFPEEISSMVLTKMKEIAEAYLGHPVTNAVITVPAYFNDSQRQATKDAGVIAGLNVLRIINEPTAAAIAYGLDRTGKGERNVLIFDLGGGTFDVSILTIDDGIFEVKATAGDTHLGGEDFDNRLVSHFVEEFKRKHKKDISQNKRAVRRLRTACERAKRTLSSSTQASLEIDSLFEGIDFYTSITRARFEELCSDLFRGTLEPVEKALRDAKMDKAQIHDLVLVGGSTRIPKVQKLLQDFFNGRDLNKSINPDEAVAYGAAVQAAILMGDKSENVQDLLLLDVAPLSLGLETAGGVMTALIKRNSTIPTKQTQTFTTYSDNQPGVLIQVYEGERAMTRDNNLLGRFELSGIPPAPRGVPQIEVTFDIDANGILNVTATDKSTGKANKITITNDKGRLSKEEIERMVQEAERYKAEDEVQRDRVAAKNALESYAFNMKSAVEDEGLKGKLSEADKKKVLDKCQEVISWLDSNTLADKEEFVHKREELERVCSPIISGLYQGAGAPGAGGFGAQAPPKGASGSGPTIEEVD

In the case of HWDFAWPWGSGSIINFEKL [BiP-OVA], the “results on cells pulsed with Ova-peptide (FIG. 5A) versus cells not pulsed (FIG. 5B)” value in test [1] is listed as “the same”.
SIINFEKLGSGHWDFAWPW [OVA-BiP]: the “radio-activity co-eluting with heat shock protein (FIG. 6)” value with BiP [2] was “significant amount of radio-activity elutes with BiP”; with hsp70, “significant amount of radio-activity elutes with BiP and hsp70”. Moreover, in test [1], the “results on cells pulsed with Ova-peptide (FIG. 5A) versus cells not pulsed (FIG. 5B)” value is reported as “the same”.
On to “Ser-Ile-Ile-Asn-Phe-Glu-Lys-Leu (SIINFEKL) [Ova-peptide, OVA antigenic domain peptide, reference compound]”, for which the “results on cells pulsed with Ova-peptide (FIG. 5A) versus cells not pulsed (FIG. 5B)” value in test [1] is given as “the same”.
Regarding “^125I-OVA-BiP: OVA-BiP labeled with monoiodinated Bolton-Hunter reagent (SIINFEKLGSGHWDFAWPW; also: labelled with monoiodinated (125I) Bolton-Hunter reagent, place not given here)”, the “release of hybrid peptide from BiP on addition of ATP (FIG. 7)” value in the test with BiP [3] is “addition of ATP causes the release”.
Consider “hsp70: purified recombinant mouse cytosolic hsp70 from E. coli DH5α transformed with pMS236”, for which the “results on cells pulsed with Ova-peptide (FIG. 5A) versus cells not pulsed (FIG. 5B)” value in test [1] is “the same”.

The values are drawn from US6673348B2, “Heat shock protein-based vaccines and immunotherapies” (priority 1995, dated 2004).
